Tests used:
[1] = test system: C5a-stimulated neutrophil; assay: Migrating ability of C5a-stimulated neutrophil; format: cell-based; conditions: 1.5 h, human neutrophils, C5a 100 pmol/L, 90 min, read-out: IC50 value, concentration at which migration of C5a-stimulated neutrophil is inhibited by 50%
Description: A neutrophil fraction was separately taken from human peripheral venous blood using Lympholyte-poly (Cedarlane) and suspended in RPMI 1640 medium (GIBCO BRL) supplemented with 0.1% bovine serum albumin (BSA). To. this neutrophil fraction (5×10^6 cells/mL) was added Calcein-AM (final concentration 5 μM, FUNAKOSHI), and the mixture was incubated at 37° C. for 30 min. The cells were washed by centrifugation and suspended to a concentration of 1×10^6 cells/mL. The migration was evaluated by adding neutrophils to chemotaxicell (pore size: 3 μm, KURABO) and measuring the neutrophils that migrated outside the chemotaxicell. First, 100 pmol/L of C5a solution was added to 24 well plate (500 μL/well) and chemotaxicell was set in the well. […] The fluorescent intensity of each well was measured by Cyto Fluor II (Ex: 485, Em: 530). The rate (% inhibition) of the inhibition of migration of C5a-stimulated neutrophil by the test compound was calculated by the following formula, wherein the fluorescence intensity of neutrophil that migrated by C5a stimulation without addition of the test compound is Max, the fluorescent intensity of neutrophil that migrated without addition of test compound and without C5a stimulation is Min, and the fluorescent intensity of neutrophil that migrated by C5a stimulation with the addition of the test compound is Test. % Inhibition=100−[(Test-Min)/(Max-Min)]×100 […]

[2] = test system: C5a stimulated neutrophil; assay: Production of reactive oxygen species in C5a stimulated neutrophil; format: cell-based; conditions: human neutrophils, C5a 3 nmol/L, luminol luminescence; read-out: IC50 value, concentration at which production of reactive oxygen species in C5a stimulated neutrophil is inhibited by 50%
Description: A neutrophil fraction was separately taken from human peripheral venous blood using Lympholyte-poly (Cedarlane), and suspended in Hank's Balanced Salt Solution (HBSS, GIBCO BRL) containing 1% fetal bovine serum (FBS) and 1 mmol/L of luminol (Wako Pure Chemical Industries, Ltd.). Reactive oxygen species was measured using a luminometer (MicroLumat, Berthold) for 96 well plate. […] Then, 25 μL of C5a (final concentration 3 nmol/L) was added and luminescence produced by the reaction of the luminol and the reactive oxygen species was measured with the lapse of time for 15 min. The rate (% inhibition) of inhibition of the production of reactive oxygen species in C5a stimulated neutrophil by the test compound was calculated by the following formula, wherein the peak value of the production of reactive oxygen species derived by C5a without addition of the test compound is Max, the peak value of the production of reactive oxygen species without addition of the test compound and without C5a stimulation is Min, and the peak value of the production of reactive oxygen species derived by C5a with the addition of the test compound is Test. % Inhibition=100−[(Test-Min)/(Max-Min)]×100 […]

## CC(C)c1ccc(N(Cc2ccc(N(C)C)cc2)C(=O)C2CCCc3ccccc32)cc1 (centres unmarked) [Example 4, N-[(4-dimethylaminophenyl)methyl]-N-(4-isopropylphenyl)-1,2,3,4-tetrahydronaphthalene-1-carboxamide]
[1]
  IC50: 100 nM
[2]
  IC50: 10 nM

Source: US7855297B2, “Amide derivatives and medicinal use thereof” (Mitsubishi Tanabe Pharma Corporation, priority 2000, dated 2010)
